Tests used:
[1] = target: T1, R. capsulatus FDH (RcFDH), metal-containing formate dehydrogenase (Rhodobacter capsulatus, UniProt D5AQH0); test: inhibition of the back reaction (CO2 reduction) at […] CS2, […] nm; type: biochemical
T1 construct: gene fdhA

[2] = target: T1, R. capsulatus FDH (RcFDH), metal-containing formate dehydrogenase; test: steady-state inhibition kinetics of formate oxidation, benzyl viologen as electron acceptor, […] nm; type: biochemical
purified protein [3] = substrate: O=CS; test: purified protein; type: biochemical, Rhodobacter capsulatus; conditions: bis-MGD molybdenum cofactor, [4Fe-4S] cluster; NAD+
purified protein [4] = substrate: O=CO; test: purified protein; type: biochemical, Rhodobacter capsulatus; conditions: bis-MGD molybdenum cofactor, [4Fe-4S] cluster; NAD+ active site, molybdenum centre

T1 sequence (D5AQH1 1-500 partner, one chain of several): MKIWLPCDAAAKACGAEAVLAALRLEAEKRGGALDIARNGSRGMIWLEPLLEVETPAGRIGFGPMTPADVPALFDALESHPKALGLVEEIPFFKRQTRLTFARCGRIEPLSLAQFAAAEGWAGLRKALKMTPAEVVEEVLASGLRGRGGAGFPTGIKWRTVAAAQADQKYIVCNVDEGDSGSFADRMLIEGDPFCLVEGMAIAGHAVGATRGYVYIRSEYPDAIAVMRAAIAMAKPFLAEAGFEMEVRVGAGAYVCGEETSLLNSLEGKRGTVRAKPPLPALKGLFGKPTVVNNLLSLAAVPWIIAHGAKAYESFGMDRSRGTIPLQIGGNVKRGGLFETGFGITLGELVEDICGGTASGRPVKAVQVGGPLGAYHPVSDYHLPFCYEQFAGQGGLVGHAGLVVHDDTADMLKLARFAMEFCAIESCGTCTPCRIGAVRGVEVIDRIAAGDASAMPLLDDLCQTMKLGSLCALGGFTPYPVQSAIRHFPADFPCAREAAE
T1 sequence (D5AQH2 1-150 partner, one chain of several): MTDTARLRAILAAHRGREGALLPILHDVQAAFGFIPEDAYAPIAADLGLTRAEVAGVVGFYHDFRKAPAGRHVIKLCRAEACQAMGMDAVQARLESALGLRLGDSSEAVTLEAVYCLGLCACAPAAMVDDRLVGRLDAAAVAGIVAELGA
T1 sequence (D5AQG8 1-71 partner, one chain of several): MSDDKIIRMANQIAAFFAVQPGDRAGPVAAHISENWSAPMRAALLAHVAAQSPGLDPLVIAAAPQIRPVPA

## S=C=S [carbon disulfide]
[1]
  inhibition of the back reaction (CO2 reduction) at 150 mM CS2, 340 nm: interfere with the active site and/or the hydrophobic channel and, therefore, inhibits the reduction in CO2 when present

## S=CS [dithioformate]
[2]
  Ki: 7.5 mM

B1: R. capsulatus FDH (RcFDH), metal-containing formate dehydrogenase (Rhodobacter capsulatus SB 1003) (protein)
chain: MKDLIIPPLDWTQDMGTPKREGAPVHLTIDGVEVTVPAGTSVLRAAAEAGISIPKLCATDNVEPVGSCRLCMVEIEGMRGTPTSCTTPVAPGMRVHTQTPQLQKLRRGVMELYISDHPLDCLTCAANGDCELQDMAGAVGLREVRYQAKDTHFARRDATGPNPRYIPKDNSNPYFSYDPAKCIVCMRCVRACEEVQGTFALTVMGRGFDARISPAAPDFLSSDCVSCGACVQACPTATLVEKSVERIGTPERKVVTTCAYCGVGCSFEAHMLGDQLVRMVPWKGGAANRGHSCVKGRFAYGYATHQDRILKPMIRDKITDPWREVNWTEALDFTATRLRALRDSHGADALGVITSSRCTNEETYLVQKLARAVFGTNNTDTCARVCHSPTGYGLKQTFGTSAGTQDFDSVEETDLALVIGANPTDGHPVFASRLRKRLRAGAKLIVVDPRRIDLLNTPHRGEAWHLQLKPGTNVAVMTAMAHVIVTEQIFDKRFIGDRCDWDEWADYAEFVANPEYAPEAVESLTGVPAGLLRQAARAYAAAPNAAIYYGLGVTEHSQGSTTVIAIANLAMMTGNIGRPGVGVNPLRGQNNVQGSCDMGSFPHEFPGYRHVSDDATRGLFERTWGVTLSSEPGLRIPNMLDAAVEGRFKALYVQGEDILQSDPDTRHVSAGLAAMDLVIVHDLFLNETANYAHVFLPGSTFLEKDGTFTNAERRINRVRRVMAPKAGFADWEVTQMLANALGAGWHYTHPSEIMAEIAATTPGFAAVTYEMLDARGSVQWPCNEKAPEGSPIMHVEGFVRGKGRFIRTAYLPTDEKTGPRFPLLLTTGRILSQYNVGAQTRRTENTVWHGEDRLEIHPTDAETRGIRDGDWVRLASRAGETTLRATVTDRVSPGVVYTTFHHPDTQANVVTTDTSDWATNCPEYKVTAVQVAASNGPSDWQQDYAAQAAAARRIEAAE
Purified protein [3]
  Km: 3300 ± 240 µM
Purified protein [4]
  Km: 145 ± 25 µM
